Data taken from the supplement of paper PMC10307832.

What was measured:
Assay in all cases: relative viability (nuclei count vs DMSO), 5 days (fraction); higher = more cells survive
Carfilzomib + Lapatinib = compound: CC(C)C[C@H](NC(=O)[C@H](CCc1ccccc1)NC(=O)CN1CCOCC1)C(=O)N[C@@H](Cc1ccccc1)C(=O)N[C@@H](CC(C)C)C(=O)[C@@]1(C)CO1 [Carfilzomib] + CS(=O)(=O)CCNCc1ccc(-c2ccc3ncnc(Nc4ccc(OCc5cccc(F)c5)c(Cl)c4)c3c2)o1 [Lapatinib] (partner 2 µM)
How it was run: (§1)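 Medians of duplicate plates are given as relative viability. That measure is the nuclei count in treated wells divided by the count in vehicle wells. Counts were taken on 4× images of lung cancer cell lines in 1536-well plates, 5 days after pin-tool dosing the day after seeding with one drug alone or a fixed anchor-drug dose plus five library-drug doses (not always all listed) in √10 steps.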

Olaparib + OSI-027 = compound: O=C(c1cc(Cc2n[nH]c(=O)c3ccccc23)ccc1F)N1CCN(C(=O)C2CC2)CC1 [Olaparib] + COc1cccc2cc(-c3nc([C@H]4CC[C@H](C(=O)O)CC4)n4ncnc(N)c34)[nH]c12 [OSI-027] (partner 0.5 µM)
How it was run: as §1

Olaparib + Pictilisib = compound: O=C(c1cc(Cc2n[nH]c(=O)c3ccccc23)ccc1F)N1CCN(C(=O)C2CC2)CC1 [Olaparib] + CS(=O)(=O)N1CCN(Cc2cc3nc(-c4cccc5[nH]ncc45)nc(N4CCOCC4)c3s2)CC1 [Pictilisib] (partner 1 µM)
How it was run: as §1

Olaparib + Pemetrexed = compound: O=C(c1cc(Cc2n[nH]c(=O)c3ccccc23)ccc1F)N1CCN(C(=O)C2CC2)CC1 [Olaparib] + Nc1nc2[nH]cc(CCc3ccc(C(=O)N[C@@H](CCC(=O)O)C(=O)O)cc3)c2c(=O)[nH]1 [Pemetrexed] (partner 0.2 µM)
How it was run: as §1

Row | Cell Line | relative viability (Carfilzomib + Lapatinib; first compound 0.001 µM) | relative viability (Carfilzomib + Lapatinib; first compound 0.003162 µM) | relative viability (Carfilzomib + Lapatinib; first compound 0.01 µM) | relative viability (Carfilzomib + Lapatinib; first compound 0.03162 µM) | relative viability (Carfilzomib + Lapatinib; first compound 0.1 µM) | relative viability (Olaparib + OSI-027; first compound 0.08 µM) | relative viability (Olaparib + OSI-027; first compound 0.253 µM) | relative viability (Olaparib + OSI-027; first compound 2.53 µM) | relative viability (Olaparib + OSI-027; first compound 8 µM) | relative viability (Olaparib + Pictilisib; first compound 0.08 µM) | relative viability (Olaparib + Pictilisib; first compound 0.253 µM) | relative viability (Olaparib + Pictilisib; first compound 2.53 µM) | relative viability (Olaparib + Pictilisib; first compound 8 µM) | relative viability (Olaparib + Pemetrexed; first compound 0.08 µM) | relative viability (Olaparib + Pemetrexed; first compound 0.253 µM) | relative viability (Olaparib + Pemetrexed; first compound 2.53 µM) | relative viability (Olaparib + Pemetrexed; first compound 8 µM)
1 | EKVX | 0.221 | 0.416 | 0.212 | 0.183 | 0.137 | 0.79 | 0.626 | 0.61 | 0.765 | 0.493 | 0.444 | 0.41 | 0.477 | 0.425 | 0.401 | 0.418 | 0.365
2 | 201T | 1.02 | 0.961 | 1.05 | 1.04 | 0.88 | 0.724 | 0.611 | 0.699 | 0.764 | 0.669 | 0.665 | 0.631 | 0.704 | 0.309 | 0.346 | 0.298 | 0.323
3 | NCI-H2228 | 1.28 | 1.23 | 0.752 | 0.104 | 0.161 | 0.644 | 0.386 | 0.598 | 0.509 | 0.429 | 0.418 | 0.292 | 0.336 | 0.395 | 0.323 | 0.311 | 0.322
4 | NCI-H2009 | 1.02 | 1.37 | 0.828 | 0.0609 | 0.0756 | 0.739 | 0.601 | 0.645 | 0.458 | 0.996 | 0.71 | 0.693 | 0.475 | 1.15 | 1.03 | 1.01 | 0.842
5 | NCI-H1975 | 0.76 | 0.911 | 0.389 | 0.116 | 0.135 | 0.761 | 0.703 | 0.848 | 0.758 | 0.309 | 0.27 | 0.284 | 0.266 | 0.304 | 0.265 | 0.303 | 0.275
6 | NCI-H2347 | 0.976 | 1.09 | 0.979 | 0.306 | 0.51 | 0.472 | 0.371 | 0.344 | 0.37 | 1.28 | 0.557 | 0.683 | 0.547 | 0.474 | 0.476 | 0.435 | 0.397
7 | PC-14 | 0.372 | 0.301 | 0.317 | 0.301 | 0.0926 | 1.27 | 0.795 | 0.805 | 0.471 | 0.872 | 0.59 | 0.601 | 0.466 | 0.131 | 0.14 | 0.135 | 0.139
8 | COR-L23 | 0.906 | 1.16 | 0.895 | 0.0642 | 0.0567 | 0.723 | 0.635 | 0.712 | 0.424 | 0.918 | 0.674 | 0.724 | 0.385 | 0.221 | 0.195 | 0.177 | 0.21
9 | LK-2 | 0.673 | 1.19 | 0.72 | 0.226 | 0.217 | 0.2 | 0.193 | 0.189 | 0.175 | 0.752 | 0.587 | 0.599 | 0.5 | 0.298 | 0.304 | 0.257 | 0.327
10 | NCI-H358 | 0.377 | 0.53 | 0.404 | 0.177 | 0.139 | 0.648 | 0.727 | 0.727 | 0.588 | 0.301 | 0.311 | 0.347 | 0.312 | 0.159 | 0.172 | 0.176 | 0.152
11 | NCI-H520 | 0.89 | 1.1 | 0.622 | 0.148 | 0.143 | 0.233 | 0.246 | 0.281 | 0.213 | 0.318 | 0.315 | 0.278 | 0.236 | 0.866 | 0.646 | 0.604 | 0.458
12 | NCI-H838 | 0.889 | 1.33 | 1.05 | 0.2 | 0.119 | 0.417 | 0.367 | 0.38 | 0.405 | 0.452 | 0.439 | 0.519 | 0.408 | 0.25 | 0.226 | 0.239 | 0.246
13 | NCI-H2126 | 0.75 | 0.798 | 0.784 | 0.765 | 0.513 | 0.766 | 0.669 | 0.794 | 0.639 | 0.544 | 0.504 | 0.513 | 0.556 | 0.743 | 0.649 | 0.663 | 0.681
14 | HCC-366 | 0.941 | 1.02 | 0.963 | 0.305 | 0.0207 | 0.856 | 0.796 | 0.762 | 0.568 | 0.135 | 0.179 | 0.11 | 0.138 | 0.165 | 0.195 | 0.206 | 0.271
15 | NCI-H2085 | 0.663 | 0.843 | 0.714 | 0.444 | 0.252 | 1.15 | 0.687 | 0.698 | 0.751 | 0.468 | 0.433 | 0.427 | 0.368 | 0.971 | 0.755 | 0.871 | 0.852
16 | LU99A | 1 | 1.03 | 0.972 | 0.521 | 0.2 | 0.31 | 0.274 | 0.288 | 0.258 | 0.303 | 0.293 | 0.3 | 0.296 | 0.187 | 0.212 | 0.161 | 0.148
17 | NCI-H1944 | 0.762 | 0.858 | 0.7 | 0.793 | 0.326 | 0.404 | 0.362 | 0.369 | 0.374 | 0.363 | 0.319 | 0.328 | 0.351 | 0.639 | 0.529 | 0.496 | 0.561
18 | NCI-H3122 | 1.03 | 0.942 | 1.09 | 0.978 | 0.806 | 1.14 | 0.954 | 1.01 | 0.814 | 0.629 | 0.532 | 0.587 | 0.627 | 0.202 | 0.194 | 0.191 | 0.18
